For one experiment, the system named is IVF cycles. As to conditions: luteal phase support in IVF cycles; Soliman et al. 1994; cited from earlier work.
For another experiment, the system named is endometrium. Briefly: Post-study mock cycle and donor egg IVF of the two ring non-responders on other progesterone. The format is in vivo, human. As to conditions: for outcome of post-study donor egg IVF: single subject; for biopsy result in post-study mock cycle: single subject without transformation on the ring. From the text: There was a fibroid found in surgery post-study, which could have affected blood supply to the endometrium. […] The subject is considering one more IVF attempt with a donor egg.

On to `CC(=O)[C@H]1CC[C@H]2[C@@H]3CCC4=CC(=O)CC[C@]4(C)[C@H]3CC[C@]12C` [progesterone, pregn-4-ene-3,20-dione], for which, in the experiment with IVF cycles, the “pregnancy rates versus placebo” value is “significantly higher pregnancy rates than placebo”.

With `CC(=O)[C@H]1CC[C@H]2[C@@H]3CCC4=CC(=O)CC[C@]4(C)[C@H]3CC[C@]12C` [micronized progesterone, pregn-4-ene-3,20-dione], in the experiment on endometrium, the “outcome of post-study donor egg IVF” value is given as “negative βhCG” and the “biopsy result in post-study mock cycle” value is reported as “adequate transformation”.

As for `CC(=O)[C@H]1CC[C@H]2[C@@H]3CCC4=CC(=O)CC[C@]4(C)[C@H]3CC[C@]12C` [IM progesterone, pregn-4-ene-3,20-dione], in the experiment on endometrium, the “outcome of post-study donor egg IVF” value is “ongoing pregnancy with delivery” and the “biopsy result in post-study mock cycle” value was “adequate transformation”.

These data come from patent US20140030311A1, “MONOLITHIC INTRAVAGINAL RINGS COMPRISING PROGESTERONE AND METHODS OF MAKING AND USES THEREOF” (TEVA WOMEN'S HEALTH, INC., priority 2009, published 2014).
